Data reported in article PMC7322745 (Journal of Ginseng Research, 2019).

Format: in vivo, human
Settings: for Tmax: both, human, serum, oral, 3 g, mean Tmax, all participants (RG and FRG groups together)

| Tmax [h] | AUC in the FRG group relative to the RG group (mean AUC, FRG group vs RG group) | Compound |
| --- | --- | --- |
| 9.41 ± 4.42 | – | CC(C)=CCC[C@](C)(O[C@@H]1O[C@H](CO)[C@@H](O)[C@H](O)[C@H]1O)[C@H]1CC[C@]2(C)[C@@H]1[C@H](O)C[C@@H]1[C@@]3(C)CC[C@H](O[C@@H]4O[C@H](CO)[C@@H](O)[C@H](O)[C@H]4O[C@@H]4O[C@H](CO)[C@@H](O)[C@H](O)[C@H]4O)C(C)(C)[C@@H]3CC[C@]12C [Rd, ginsenoside Rd] |
| 9.32 ± 3.38 | more than six | CC(C)=CCC[C@](C)(O[C@@H]1O[C@H](CO)[C@@H](O)[C@H](O)[C@H]1O)[C@H]1CC[C@]2(C)[C@@H]1[C@H](O)C[C@@H]1[C@@]3(C)CC[C@H](O[C@@H]4O[C@H](CO)[C@@H](O)[C@H](O)[C@H]4O)C(C)(C)[C@@H]3CC[C@]12C [F2, ginsenoside F2] |
